# Excerpt: In one or more embodiments, the foamable composition includes a potent solvent, in addition to or in place of one of the hydrophobic solvents, polar solvents or emollients of the composition. A potent solvent is a solvent other than mineral oil that solubilizes a specific active agent substantially better than a hydrocarbon solvent such as mineral oil or petrolatum.
Solubility in mineral oil,Solubility in dimethyl isosorbide,Solubility in glycofurol,Solubility in isostearic acid,Solubility in polyethylene glycol 400 (PEG 400),Solubility in propylene glycol,Structure (SMILES)
< 0.001%,,,,,,CC(=O)[C@H]1CC[C@H]2[C@@H]3CCC4=CC(=O)CC[C@]4(C)[C@H]3CC[C@]12C [Progesterone]
< 0.01%,,more than 1%,,,,CCCCC(=O)O[C@]1(C(=O)CO)[C@@H](C)C[C@H]2[C@@H]3CCC4=CC(=O)C=C[C@]4(C)[C@@]3(F)[C@@H](O)C[C@@]21C [Betamethasone valerate]
< 0.01%,more than 1%,more than 1%,,more than 1%,more than 1%,C/C(=C\C(=O)OCCCCCCCCC(=O)O)C[C@@H]1OC[C@H](C[C@@H]2O[C@H]2[C@@H](C)[C@H](C)O)[C@@H](O)[C@H]1O [Mupirocin]
< 0.01%,,more than 1%,,,,CCCC(=O)O[C@]1(C(=O)CO)CC[C@H]2[C@@H]3CCC4=CC(=O)CC[C@]4(C)[C@H]3[C@@H](O)C[C@@]21C [Hydrocortisone butyrate]
< 0.01%,more than 1%,more than 1%,,,more than 1%,CC(=O)N1CCN(c2ccc(OCC3COC(Cn4ccnc4)(c4ccc(Cl)cc4Cl)O3)cc2)CC1 (stereo not drawn) [Ketoconazole]

# Continued, molecule first:
Structure (SMILES),Solubility in mineral oil,Solubility in dimethyl isosorbide,Solubility in glycofurol,Solubility in isostearic acid,Solubility in polyethylene glycol 400 (PEG 400),Solubility in propylene glycol
Cc1ncc([N+](=O)[O-])n1CCO [Metronidazole],< 0.01%,more than 1%,,,,
Cc1cnc(NC(=O)C2=C(O)c3ccccc3S(=O)(=O)N2C)s1 [Meloxicam],< 0.001%,,,,,
"CC(C)Cn1cnc2c(N)nc3ccccc3c21 [imiquimod, 4-Amino-1-isobutyl-1H-imidazo[4,5-c] quinoline]",,,,soluble,,

# Source: patent US11103454B2, “Wax foamable vehicle and pharmaceutical compositions thereof” (VYNE THERAPEUTICS INC., priority 2007, dated 2021)
